Here are results for seven cell lines from the supplement of paper PMC10307832.

What all share (assay): relative viability (nuclei count vs DMSO), 5 days (fraction); higher = more cells survive
Compound in test [1]: CC1=CN=C(N=C1C2=CNC(=C2)C(=O)N[C@H](CO)C3=CC(=CC=C3)Cl)NC4=C(C=C(C=C4)F)Cl [VX-11e] + C[C@]1(O)C[C@@H](c2nc(-c3ccc4ccc(-c5ccccc5)nc4c3)c3c(N)nccn32)C1 [Linsitinib] (partner 1 µM)
In short, it runs like this:
(§1)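 Relative viability is defined as nuclei in treated wells over nuclei in vehicle wells. Duplicate plates were run and medians reported. Lung cancer cell lines in 1536-well plates were dosed by pin tool one day after seeding, with one drug or with a fixed anchor-drug dose plus five library-drug doses (not always all listed) in √10 steps, and nuclei were counted after 5 days.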

Compound in test [2]: CC1=CN=C(N=C1C2=CNC(=C2)C(=O)N[C@H](CO)C3=CC(=CC=C3)Cl)NC4=C(C=C(C=C4)F)Cl [VX-11e] + CS(=O)(=O)CCNCc1ccc(-c2ccc3ncnc(Nc4ccc(OCc5cccc(F)c5)c(Cl)c4)c3c2)o1 [Lapatinib] (partner 2 µM)
The procedure, abridged: as §1

Compound in test [3]: CC1=CN=C(N=C1C2=CNC(=C2)C(=O)N[C@H](CO)C3=CC(=CC=C3)Cl)NC4=C(C=C(C=C4)F)Cl [VX-11e] + CC(=O)Nc1cccc(-n2c(=O)n(C3CC3)c(=O)c3c(Nc4ccc(I)cc4F)n(C)c(=O)c(C)c32)c1 [Trametinib] (partner 0.02 µM)
The procedure, abridged: as §1

Compound in test [4]: CC1=CN=C(N=C1C2=CNC(=C2)C(=O)N[C@H](CO)C3=CC(=CC=C3)Cl)NC4=C(C=C(C=C4)F)Cl [VX-11e] + COc1cccc2cc(-c3nc([C@H]4CC[C@H](C(=O)O)CC4)n4ncnc(N)c34)[nH]c12 [OSI-027] (partner 0.5 µM)
The procedure, abridged:
as §1

Turning to PC-3 [JPC-3], the relative viability is 1.08 in test [1] (first compound 0.04 µM); 0.959 in test [1] (first compound 0.1265 µM); 0.99 in test [1] (first compound 0.4 µM); 1.09 in test [1] (first compound 1.265 µM); 0.822 in test [1] (first compound 4 µM); 0.384 in test [2] (first compound 0.04 µM). The relative viability in test [2] (first compound 0.1265 µM) was determined as 0.485; in test [2] (first compound 0.4 µM), 0.436; in test [2] (first compound 1.265 µM) it was 0.453; in test [2] (first compound 4 µM) it was 0.445; in test [3] (first compound 0.04 µM), 0.671; in test [3] (first compound 0.1265 µM) it was 0.653. In addition, the relative viability in test [3] (first compound 0.4 µM) came to 0.59; in test [3] (first compound 1.265 µM) it was 0.572; in test [3] (first compound 4 µM), 0.527; in test [4] (first compound 0.04 µM), 0.705; in test [4] (first compound 0.1265 µM), 0.714; in test [4] (first compound 0.4 µM), 0.685. In addition, the relative viability in test [4] (first compound 1.265 µM) stood at 0.866; in test [4] (first compound 4 µM) it was 0.544.

As to PC-14, the relative viability worked out at 1 in test [1] (first compound 0.04 µM); 0.866 in test [1] (first compound 0.1265 µM); 0.953 in test [1] (first compound 0.4 µM); 0.961 in test [1] (first compound 1.265 µM); 0.665 in test [1] (first compound 4 µM); 0.275 in test [2] (first compound 0.04 µM). In addition, the relative viability is 0.327 in test [2] (first compound 0.1265 µM); 0.251 in test [2] (first compound 0.4 µM); 0.35 in test [2] (first compound 1.265 µM); 0.203 in test [2] (first compound 4 µM); 0.734 in test [3] (first compound 0.04 µM); 0.697 in test [3] (first compound 0.1265 µM). Further, the relative viability in test [3] (first compound 0.4 µM) was 0.624; in test [3] (first compound 1.265 µM), 0.413; in test [3] (first compound 4 µM), 0.216; in test [4] (first compound 0.04 µM), 0.739; in test [4] (first compound 0.1265 µM), 0.723; in test [4] (first compound 0.4 µM) it was 0.4. Also, the relative viability in test [4] (first compound 1.265 µM) was found to be 0.635; in test [4] (first compound 4 µM) it was 0.166.

Consider RERF-LC-KJ, for which the relative viability in test [1] (first compound 0.04 µM) worked out at 0.989; in test [1] (first compound 0.1265 µM), 0.863; in test [1] (first compound 0.4 µM), 0.862; in test [1] (first compound 1.265 µM), 0.874; in test [1] (first compound 4 µM), 0.708; in test [2] (first compound 0.04 µM), 0.833. The relative viability in test [2] (first compound 0.1265 µM) came out at 0.776; in test [2] (first compound 0.4 µM) it was 0.879; in test [2] (first compound 1.265 µM), 0.848; in test [2] (first compound 4 µM), 0.649; in test [3] (first compound 0.04 µM) it was 0.888; in test [3] (first compound 0.1265 µM), 0.766. In addition, the relative viability in test [3] (first compound 0.4 µM) amounted to 0.897; in test [3] (first compound 1.265 µM) it was 0.921; in test [3] (first compound 4 µM), 0.667; in test [4] (first compound 0.04 µM), 0.442; in test [4] (first compound 0.1265 µM), 0.474; in test [4] (first compound 0.4 µM), 0.528. Also, the results for the relative viability in test [4] (first compound 1.265 µM) and in test [4] (first compound 4 µM) were 0.504 and 0.327, respectively.

For SK-LU-1, the relative viability turned out to be 0.597 in test [1] (first compound 0.04 µM); 0.925 in test [1] (first compound 0.1265 µM); 1.31 in test [1] (first compound 0.4 µM); 0.771 in test [1] (first compound 1.265 µM); 0.316 in test [1] (first compound 4 µM); 0.897 in test [2] (first compound 0.04 µM). Moreover, the relative viability came out at 0.744 in test [2] (first compound 0.1265 µM); 0.524 in test [2] (first compound 0.4 µM); 0.752 in test [2] (first compound 1.265 µM); 0.272 in test [2] (first compound 4 µM); 0.427 in test [3] (first compound 0.04 µM); 0.332 in test [3] (first compound 0.1265 µM). Further, the relative viability in test [3] (first compound 0.4 µM) came out at 0.179; in test [3] (first compound 1.265 µM) it was 0.25; in test [3] (first compound 4 µM), 0.274; in test [4] (first compound 0.04 µM), 0.285; in test [4] (first compound 0.1265 µM), 0.352; in test [4] (first compound 1.265 µM), 0.233. Moreover, the relative viability in test [4] (first compound 4 µM) stood at 0.132.

Consider SK-MES-1, for which the relative viability in test [1] (first compound 0.04 µM) was 1.08; in test [1] (first compound 0.1265 µM), 1.03; in test [1] (first compound 0.4 µM), 1.07; in test [1] (first compound 1.265 µM), 1.05; in test [1] (first compound 4 µM), 0.691; in test [2] (first compound 0.04 µM) it was 0.452. Besides, the relative viability stood at 0.414 in test [2] (first compound 0.1265 µM); 0.47 in test [2] (first compound 0.4 µM); 0.436 in test [2] (first compound 1.265 µM); 0.282 in test [2] (first compound 4 µM); 0.566 in test [3] (first compound 0.04 µM); 0.486 in test [3] (first compound 0.1265 µM). For the same cell line, the relative viability in test [3] (first compound 0.4 µM) turned out to be 0.399; in test [3] (first compound 1.265 µM), 0.338; in test [3] (first compound 4 µM), 0.27; in test [4] (first compound 0.04 µM) it was 0.585; in test [4] (first compound 0.1265 µM), 0.436; in test [4] (first compound 0.4 µM) it was 0.632. Besides, the relative viability in test [4] (first compound 1.265 µM) came to 0.552; in test [4] (first compound 4 µM), 0.185.

Turning to SW 1573, the relative viability in test [1] (first compound 0.04 µM) stood at 1.03; in test [1] (first compound 0.1265 µM), 0.959; in test [1] (first compound 0.4 µM), 0.718; in test [1] (first compound 1.265 µM) it was 0.78; in test [1] (first compound 4 µM), 0.432; in test [2] (first compound 0.04 µM), 1.11. For the same cell line, the relative viability was determined as 0.979 in test [2] (first compound 0.1265 µM); 1.07 in test [2] (first compound 0.4 µM); 0.891 in test [2] (first compound 1.265 µM); 0.472 in test [2] (first compound 4 µM); 0.567 in test [3] (first compound 0.1265 µM); 0.498 in test [3] (first compound 0.4 µM). The relative viability in test [3] (first compound 1.265 µM) was 0.401; in test [3] (first compound 4 µM), 0.328; in test [4] (first compound 0.04 µM), 0.52; in test [4] (first compound 0.1265 µM) it was 0.561; in test [4] (first compound 0.4 µM), 0.708; in test [4] (first compound 1.265 µM) it was 0.402. In addition, the relative viability in test [4] (first compound 4 µM) turned out to be 0.194.

UMC-11: the relative viability in test [1] (first compound 0.04 µM) stood at 0.935; in test [1] (first compound 0.1265 µM), 0.937; in test [1] (first compound 0.4 µM) it was 1; in test [1] (first compound 1.265 µM), 1; in test [1] (first compound 4 µM), 0.989; in test [2] (first compound 0.04 µM) it was 0.546. In addition, the relative viability in test [2] (first compound 0.1265 µM) was found to be 0.94; in test [2] (first compound 0.4 µM), 0.712; in test [2] (first compound 1.265 µM), 0.602; in test [2] (first compound 4 µM), 0.758; in test [3] (first compound 0.04 µM), 0.563; in test [3] (first compound 0.1265 µM), 0.626. The relative viability was found to be 0.563 in test [3] (first compound 0.4 µM); 0.357 in test [3] (first compound 1.265 µM); 0.551 in test [3] (first compound 4 µM); 0.36 in test [4] (first compound 0.04 µM); 0.435 in test [4] (first compound 0.1265 µM); 0.41 in test [4] (first compound 0.4 µM). The relative viability stood at 0.379 in test [4] (first compound 1.265 µM) and 0.428 in test [4] (first compound 4 µM).
